“And” between values parts separate entries of the source, which are not always exact repeats. Equal entries are not always repeated.

This is an account of results in patent publication US20180092357A1, “SYNERGISTIC PRESERVATIVE COMPOSITIONS” (ISP Investments LLC, priority 2015, published 2018).

What all share (format): cell-based
One test relates to B. cepacia (ATCC 25416). In words: MIC and synergy test (Kull method). To be noted: compound or premix acting alone. Here is the method: (§1) The cumulative synergistic activity of propylene carbonate, organic compounds/preservative compounds are performed against selected microbial strains.
(§2) Tryptic Soy Broth (TSB) media was used for bacterial evaluations and Yeast Malt Broth (YMB) for fungal evaluations. The compounds were added to the media and serially diluted. After serially diluting the media, 100 μl of a suspension of the testing bacteria or fungi were added to a final concentration of approximately […]. The inoculated media was then incubated at 32° C. for 2-5 days for bacteria or at 28° C. for 3-7 days for fungi.
(§3) The lowest concentration of each compound or mixture or compounds to inhibit visible growth was taken as the minimum inhibitory concentration (MIC). The MIC was taken as end points of activity. End points for the mixture of compound A (Propylene Carbonate) and compound B (organic compounds/conventional preservative) were then compared with the end points for the pure active ingredient alone.
(§4) Synergism was determined by a commonly used and accepted method described by Kull A. C.; Eisman, P. C.; Sylwestrowicz, H. D. and Mayer, R. L. 1961. Applied Microbiology, 9:538-541 using the ratio determine by:
(§5) • QA is the concentration of compound A in PPM, acting alone, which produced an end point. • Qa is the concentration of compound A in PPM, in the mixture, which produced an end point. • QB is the concentration of compound B in PPM, acting alone, which produced an end point. • Qb is the concentration of compound B in PPM, in the mixture, which produced an end point
(§6) When the sum of Qa/QA+Qb/QB is greater than one, antagonism is indicated. When the sum is equal to one, additive is indicated.
(§7) The results comprise following parameters: 1. Test organism (bacteria or fungi), 2. The end-point activity in % measured by MIC for the compound A alone (QA), for compound A in the mixture (Qa), for compound B alone (QB), for compound B in the mixture (Qb), 3. The ratio of Propylene carbonate or combinations of propylene carbonate and an organic compound (compound A) to organic compound (compound B) in that particular combination and the synergy index (SI) based on the formula SI=Qa/QA+Qb/QB.

Another test relates to E. coli (ATCC 8739). In words: MIC and synergy test (Kull method). The conditions noted are these: compound or premix acting alone. The method, then: as §1, §2, §3, §4, §5, §6, §7
A further test has as its system S. aureus (ATCC 6538). In words: MIC and synergy test (Kull method). To be noted: compound or premix acting alone. Here is the method:
as §1, §2, §3, §4, §5, §6, §7

Test [1] concerns A. brasilensis (ATCC 16404). Nature of the test: MIC and synergy test (Kull method). The conditions noted are these: compound or premix acting alone. Here is the method:
as §1, §2, §3, §4, §5, §6, §7

In a further test the test system is C. albicans (ATCC 10231). Nature of the test: MIC and synergy test (Kull method). The method, then: as §1, §2, §3, §4, §5, §6, §7
Test [2] deals with P. aeruginosa (ATCC 9027). Nature of the test: MIC and synergy test (Kull method). To be noted: compound or premix acting alone. The method, then: as §1, §2, §3, §4, §5, §6, §7
Another test deals with bacteria and fungi. Nature of the test: Antimicrobial and antifungal characteristics (MIC), general statement. The conditions noted are these: alone.

Take `CC1CCC(C(C)C)C(O)C1` (racemic) [DLM, DL-Menthol]: the “MIC of the compound acting alone (QA, QB)” value (shortened to “MIC … (QA, QB)”) in the test on B. cepacia (ATCC 25416) was determined as 0.69%; in the test on E. coli (ATCC 8739) it was 1.39%; in the test with S. aureus (ATCC 6538), 0.69%.

In the case of `CC1COC(=O)O1` (stereo not shown) [PC, Propylene Carbonate], the “MIC … (QA, QB)” value is 1.56% and 3.12% and 0.78% in test [1]; 3.12% and 1.56% in the test with B. cepacia (ATCC 25416); 6.25% in the test on C. albicans (ATCC 10231); 3.12% and 1.56% and 6.25% in the test on E. coli (ATCC 8739); 3.12% in test [2]; 12.5% and 3.12% and 6.25% in the test with S. aureus (ATCC 6538). Also, the “antimicrobial and antifungal characteristics (MIC)” value in the test on bacteria and fungi was “no significant antimicrobial and antifungal characteristics”.

Regarding `OCCc1ccccc1` [PhA, Phenethyl Alcohol], the “MIC … (QA, QB)” value with B. cepacia (ATCC 25416) worked out at 0.156%; with C. albicans (ATCC 10231), 0.625%.

Turning to `CCCCCCC(O)CO` (stereo not shown) [OD, 1,2 octanediol], the “MIC … (QA, QB)” value in test [1] is given as 0.312%; in test [2], 0.625%; with S. aureus (ATCC 6538), 0.625%.

`CCC(=O)O` [PA, Propionic Acid]: the figures for the “MIC … (QA, QB)” value (in test [1]; in the test with B. cepacia (ATCC 25416)) were 0.078% and 0.20%, respectively.

With Alkyl Glucoside [AG6206], the “MIC … (QA, QB)” value in test [2] is listed as 3.12%.

For the molecule `CCCCCCCCC(O)CO` (stereo not shown) [DD], the “MIC … (QA, QB)” value in test [1] is 0.0156% and 0.008%; in the test on B. cepacia (ATCC 25416) it was 0.0625%; in the test with E. coli (ATCC 8739) it was 0.0625% and 0.0312%; in test [2], over 2.5%; in the test with S. aureus (ATCC 6538) it was 0.0312% and 0.0156%.

Turning to `Cc1cc(O)ccc1C(C)C` [DBL, O-cymen-5-ol], in the test on E. coli (ATCC 8739), the “MIC … (QA, QB)” value turned out to be 0.0625%.

Regarding `CCCCCCCC(=O)NO` [CHA, Capryl Hydroxamic Acid], the “MIC … (QA, QB)” value came to 0.031% in test [1], 0.031% in the test with E. coli (ATCC 8739) and 0.125% in the test on S. aureus (ATCC 6538).

For `CCCCCCOCC(O)CO` (stereo not shown) [HG, Hexylglycerine], the “MIC … (QA, QB)” value in test [1] amounted to 0.156%.

For the molecule `CCCCCCCCCCC=O` [UND, Undecanal], in test [1], the “MIC … (QA, QB)” value was 1.25%.

Consider `CCCCC(O)CO` (stereo not shown) [HD, 1,2-hexanediol], for which the “MIC … (QA, QB)” value is reported as 1.25% in test [1]; 0.625% with B. cepacia (ATCC 25416); 1.25% in the test with E. coli (ATCC 8739); 1.25% in test [2]; 2.5% in the test on S. aureus (ATCC 6538).
